The results in this text go back to US7589121B2, “Use of furan alkyls for preparing a drug for treating obesity and cosmetically treating overweight” (priority 2004, dated 2009).

The structures appear in SMILES notation.

For data set [1], the system named is mice fattened on a high fat/high sucrose diet (HF/HS). Description: Weight gain / weight of mice on HF/HS diet. In kind it is in vivo. The settings on record: curative group; TZD added to HF/HS food. The protocol:
We used adult mice (aged 6 weeks) of masculine gender fattened on a high fat/high sucrose diet (HF/HS). Feeding with the HF/HS diet began on mice aged 6 weeks and continued throughout the period of the study. The study was conducted along 2 axes: • prevention: the product was administered as soon as feeding began with the HF/HS diet; • management (curative): the product was administered 12 weeks after the start of the HF/HS diet. Total treatment time (preventive and curative): 23 weeks.
Each experimental group comprised 10 mice.

For another data set, the system named is ACO (target PPARα). As to the kind of experiment: Analysis of mRNAs in the liver (Q-RT-PCR): ACO. In kind it is in vivo, mice. The settings on record: TZD. The method, then:
(§1) In the liver, the mRNA expressions of 8 genes were determined in 5 mice of each group using real-time Q-RT-PCR analysis.

Another data set deals with PEPCK (target PPARγ). Description: Analysis of mRNAs in the liver (Q-RT-PCR): PEPCK. In kind it is in vivo, mice. The following applies: TZD. The method, then: as §1
The subject of data set [2] is GSH-S-transferase (target PXR). As to the kind of experiment: Analysis of mRNAs in the liver (Q-RT-PCR): GSH-S-transferase. The settings on record: TZD. The format is in vivo, mice. The protocol: as §1
The test system of the next data set is CYP7A1. As to the kind of experiment: Analysis of mRNAs in the liver (Q-RT-PCR): CYP7A1. In kind it is in vivo, mice. The following applies: TZD. The method, then:
as §1

The test system of data set [3] is ME, FAS, ACC (fatty acid synthesis). Description: Analysis of mRNAs in the liver (Q-RT-PCR): ME, FAS, ACC. The settings on record: TZD. In kind it is in vivo, mice. The method, then:
as §1

The subject of data set [4] is PGC-1 (mitochondria biogenesis). Description: Analysis of mRNAs in the muscles and BAT: PGC-1. The format is in vivo, mice. The settings on record: TZD. The protocol:
In the brown adipose tissue (BAT) and in the muscles, the mRNA expression of 3 genes was determined in 5 mice of each group by real-time Q-RTR-PCR analysis.

`CN(CCOc1ccc(CC2SC(=O)NC2=O)cc1)c1ccccn1` (stereo not shown) [TZD, Rosiglitazone]: in data set [1], the “weight loss of overweight mice” value is “did not cause the overweight mice to lose weight”. Also, in the data set on ACO (target PPARα), the “ACO (target PPARα) mRNA, liver” value is recorded as “⇑”. The “PEPCK (target PPARγ) mRNA, liver” value in the data set on PEPCK (target PPARγ) is listed as “⇑”. Also, the “GSH-S-transferase (target PXR) mRNA, liver” value in data set [2] is recorded as “⇑”. The “CYP7A1 (conversion oxysterol into biliary acids) mRNA, liver” value in the data set with CYP7A1 is listed as “⇑⇑”. Besides, the “ME, FAS, ACC (fatty acid synthesis) mRNA, liver” value in data set [3] is on record as “⇑⇑”. For the same molecule, the “PGC-1 (mitochondria biogenesis) mRNA, MUSCLE/BAT” value in data set [4] was “⇑ (muscle)”.
